Experimental data taken from patent US8394954B2, “Benzophenone hybrids as anticancer agents and processes for the preparation thereof” (Council of Scientific & Industrial Research, priority 2007, dated 2013).

Assays:
CNS cancer cell lines = experiment: NCI in vitro anticancer screen, CNS panel; type: cell-based, human; settings: average of six to nine cell lines; for GI50: Homo sapiens, read-out: Log GI50 (concentration in mol/L causing 50% growth inhibition) (converted)
Description: (§1) Compounds described herein were evaluated for in vitro anticancer activity. Particularly the 6a, 6b, 6d, 6h, 8a and 8b compounds were evaluated for in vitro anticancer activity against sixty human tumor cells derived from nine cancer types (leukemia, non-small-cell lung, colon, […], ovarian, prostate, and breast cancer) as shown in (Table 2 and 3). For the compound, dose response curves for each cell line were measured at a minimum of five concentrations at 10 fold dilutions. A protocol of 48 h continuous drug exposure was used and a sulforhodamine B (SRB) protein assay was used to estimate cell viability or growth. The concentration causing 50% cell growth inhibition (GI50), total cell growth inhibition (TGI 0% growth) and 50% cell death (LC50, −50% growth) compared with the control was calculated.

[1] = tested on: duplex-form calf thymus DNA (CT-DNA); experiment: Thermal denaturation studies with CT-DNA; type: binding; settings: [BPD]:[DNA] molar ratio 1:5, CT-DNA 100 μM, ligand 20 μM, pH 7.00
Description: Compounds were subjected to thermal denaturation studies with duplex-form calf thymus DNA (CT-DNA). Working solutions in aqueous buffer (10 mM NaH2PO4/Na2HPO4, 1 mM Na2EDTA, pH 7.00+0.01) containing CT-DNA (100 μm in phosphate) and the BPD (20 μm) were prepared by addition of concentrated BPD solutions in DMSO to obtain a fixed [BPD]/[DNA] molar ratio of 1:5. The DNA-BPD solutions were incubated at 37° C. for 0, 18, and 36 h prior to analysis. Samples were monitored at 260 nm using a Beckman DU-7400 spectrophotometer fitted with high performance temperature controller, and heating was applied at 1° C. min-1 in the 40-90° C. range. DNA helix coil transition temperatures (Tm) were obtained from the maxima in the (dA260)/dT derivative plots. Results are given as the mean±standard deviation from three determinations and are corrected for the effects of DMSO co-solvent using a linear correction term. Drug-induced alterations in DNA melting behavior are given by: ΔTm=Tm(DNA+BPD)−Tm(DNA alone), where the Tm value for the BPD-free CT-DNA is 69.0±0.01.

[2] = tested on: Nonsmall-cell-lung cancer cell lines; experiment: NCI in vitro anticancer screen, non-small-cell lung panel; type: cell-based, human; settings: average of six to nine cell lines; for GI50: Homo sapiens, read-out: Log GI50 (concentration in mol/L causing 50% growth inhibition) (converted)
Description: as §1

[3] = tested on: Prostate cancer cell lines; experiment: NCI in vitro anticancer screen, prostate panel; type: cell-based, human; settings: average of six to nine cell lines; for GI50: Homo sapiens, read-out: Log GI50 (concentration in mol/L causing 50% growth inhibition) (converted)
Description: as §1

[4] = tested on: sixty human tumor cells derived from nine cancer types; experiment: NCI in vitro anticancer screen, 48 h exposure, SRB assay, mean over all lines; type: cell-based; settings: for Log10LC50 mean graph midpoint (MG_MID) / Log10GI50 mean graph midpoint (MG_MID) / Log10TGI mean graph midpoint (MG_MID): human tumor cell lines, 48 h exposure; for Log10LC50 mean graph midpoint (MG_MID): 50% cell death; for Log10GI50 mean graph midpoint (MG_MID): 50% cell growth inhibition; for Log10TGI mean graph midpoint (MG_MID): total cell growth inhibition; for GI50: Homo sapiens, wide spectrum of activity against sixty cell lines in nine cell panels
Description: as §1

Breast cancer cell lines = experiment: NCI in vitro anticancer screen, breast panel; type: cell-based, human; settings: average of six to nine cell lines; for GI50: Homo sapiens, read-out: Log GI50 (concentration in mol/L causing 50% growth inhibition) (converted)
Description: as §1

[5] = tested on: Ovarian cancer cell lines; experiment: NCI in vitro anticancer screen, ovarian panel; type: cell-based, human; settings: average of six to nine cell lines; for GI50: Homo sapiens, read-out: Log GI50 (concentration in mol/L causing 50% growth inhibition) (converted)
Description: as §1

[6] = tested on: Melanoma cancer cell lines; experiment: NCI in vitro anticancer screen, melanoma panel; type: cell-based, human; settings: average of six to nine cell lines; for GI50: Homo sapiens, read-out: Log GI50 (concentration in mol/L causing 50% growth inhibition) (converted)
Description: as §1

Colon cancer cell lines = experiment: NCI in vitro anticancer screen, colon panel; type: cell-based, human; settings: average of six to nine cell lines; for GI50: Homo sapiens, read-out: Log GI50 (concentration in mol/L causing 50% growth inhibition) (converted)
Description: as §1

[7] = tested on: Leukemia cancer cell lines; experiment: NCI in vitro anticancer screen, leukemia panel; type: cell-based, human; settings: average of six to nine cell lines; for GI50: Homo sapiens, read-out: Log GI50 (concentration in mol/L causing 50% growth inhibition) (converted)
Description: as §1

Renal cancer cell lines = experiment: NCI in vitro anticancer screen, renal panel; type: cell-based, human; settings: average of six to nine cell lines; for GI50: Homo sapiens, read-out: Log GI50 (concentration in mol/L causing 50% growth inhibition) (converted)
Description: as §1

[8] = tested on: human cancer cell lines of colon (Colo205), lung (Hop-62), cervix (SiHa), prostate (DU145, PC3), oral (DWD, HT1080), and breast (MCF7, Zr-75-1) origin; experiment: In vitro evaluation of cytotoxic activity in selected human cancer cell lines, 48 h exposure; type: cell-based; settings: 48 h continuous drug exposure
Description: In vitro evaluation of cytotoxic activity. Compounds 6a, 6b, 6d, 6e, 8a and 8b were evaluated for in vitro anticancer activity against nine human tumor cells derived from six cancer types (colon, prostate, oral, lung, cervix and breast cancer) as shown in Table 2. […] Compounds 6a, 6b, 6d, 6e, 8a and 8b have been evaluated for their in vitro cytotoxicity in selected human cancer cell lines of colon (Colo205), lung (Hop-62), cervix (SiHa), prostate (DU145, PC3), oral (DWD, HT1080), and breast (MCF7, Zr-75-1) origin. A protocol of 48 h continuous drug exposure has been used and an […] has been used to estimate cell viability or growth. The results are expressed as percent of cell growth determined relative to that of untreated control cells

SMILES	GI50 (CNS cancer cell lines) [µM]	ΔTm after incubation at 37° C. for 0 h [1] [°C]	ΔTm after incubation at 37° C. for 18 h [1] [°C]	ΔTm after incubation at 37° C. for 36 h [1] [°C]	GI50 [2] [nM]	GI50 [3] [nM]	Log10LC50 mean graph midpoint (MG_MID) [4]	Log10GI50 mean graph midpoint (MG_MID) [4]	Log10TGI mean graph midpoint (MG_MID) [4]	GI50 (Breast cancer cell lines) [µM]	GI50 [5] [µM]	GI50 [6] [nM]	GI50 (Colon cancer cell lines) [nM]	GI50 [7] [nM]	GI50 (Renal cancer cell lines) [nM]	cytotoxicity against some cancer cell lines [8]	also measured
O=C(CN1CCN(c2ncccn2)CC1)Nc1ccc(Cl)cc1C(=O)c1ccccc1Cl [Compound 6b, N1-[4-chloro-2-(2-chlorobenzoyl)phenyl]-2-[4-(2-pyrimidinyl)piperazino]acetamide]	5.89	1.5	2.1	2.6	3630	16600	−5.73	−6.57	−6.89	6.76	5.75	1780	2140	5500	5620		
O=C(CN1CCN(CCCN2CCN(CC(=O)Nc3ccc(Cl)cc3C(=O)c3ccccc3Cl)CC2)CC1)Nc1ccc(Cl)cc1C(=O)c1ccccc1Cl [Compound 6g]		1.6	2.6	2.9													
COc1ccccc1N1CCN(CC(=O)Nc2ccc(Cl)cc2C(=O)c2ccccc2Cl)CC1 [Compound 6c, N1-[4-chloro-2-(2-chlorobenzoyl)phenyl]-2-[4-(2-methoxyphenyl)piperazino]acetamide]		1.4	1.6	2.3												promising cytotoxicity	
O=C(CN1CCN(CC(=O)Nc2ccc(Cl)cc2C(=O)c2ccccc2Cl)CC1)Nc1ccc(Cl)cc1C(=O)c1ccccc1Cl [Compound 6f, N1-[4-chloro-2-(2-chlorobenzoyl)phenyl]-2-(4-2-[4-chloro-2-(2-chlorobenzoyl)anilino]-2-oxoethylpiperazino)acetamide]		1.3	2.1	3.0													
COc1cc2c(cc1O)N=CC1CCCN1C2=O (stereo not drawn) [DC-81, reference compound]		0.3	0.7														
CC(C)(C)c1cn2cccc(C(=O)N3CCN(CC(=O)Nc4ccc(Cl)cc4C(=O)c4ccccc4Cl)CC3)c2n1 [Compound 6e]	1.41	1.9	2.3	2.8	661	1350	−5.39	−5.93	−6.28	2.14	3.55	3470	589	851	1050	promising cytotoxicity	
O=C(CN1CCN(CCCOc2oc3ccccc3c(=O)c2-c2ccccc2)CC1)Nc1ccc(Cl)cc1C(=O)c1ccccc1Cl [Compound 8a]		1.4	2.1	2.1			−5.32	−6.19	−6.33							promising cytotoxicity	Log GI50 (concentration in mol/L causing 50% growth inhibition) (CNS cancer cell lines): −5.69 mol/L; Log GI50 (concentration in mol/L causing 50% growth inhibition) [2]: −5.75 mol/L; Log GI50 (concentration in mol/L causing 50% growth inhibition) [3]: −5.56 mol/L; Log GI50 (concentration in mol/L causing 50% growth inhibition) (Breast cancer cell lines): −5.70 mol/L; Log GI50 (concentration in mol/L causing 50% growth inhibition) [5]: −5.80 mol/L; Log GI50 (concentration in mol/L causing 50% growth inhibition) [6]: −5.79 mol/L; Log GI50 (concentration in mol/L causing 50% growth inhibition) (Colon cancer cell lines): −5.75 mol/L; Log GI50 (concentration in mol/L causing 50% growth inhibition) [7]: −6.11 mol/L; Log GI50 (concentration in mol/L causing 50% growth inhibition) (Renal cancer cell lines): −5.71 mol/L
COc1cc(/C=C/C(=O)c2ccc(F)cc2)ccc1OCCCN1CCN(CC(=O)Nc2ccc(Cl)cc2C(=O)c2ccccc2Cl)CC1 [Compound 8]		1.5	2.3	2.4													
O=C(CN1CCN(c2ccccn2)CC1)Nc1ccc(Cl)cc1C(=O)c1ccccc1Cl [Compound 6a, N1-[4-chloro-2-(2-chlorobenzoyl)phenyl]-2-[4-(2-pyridyl)piperazino]acetamide]	5.62	1.2	1.7	2.2	2510	1780	−4.35	−6.51	−6.54	3.89	6.76	1290	5750	3550	1550	promising cytotoxicity	GI50 [4]: < 20 µM
O=C(c1ccccc1)c1cc(Cl)ccc1OCCCCN1CCN(CCCCOc2ccc(Cl)cc2C(=O)c2ccccc2)CC1 [Compound 8b]	4.17	1.6	2.6	2.9	3240	3160	−5.25	−6.35	−5.51	3.47	5.75			631	2570		GI50 [4]: < 20 µM
